pIC50: −log10 of the molar value. Counter-ions that a name gives are not always drawn. Like-named read-outs stand apart in the source and are kept apart here.
Biological target: T1, beta-amyloid 42 (Aβ42) (Homo sapiens, UniProt P05067)
T1 construct: Beta-amyloid 42 (Aβ42) was dissolved in dimethylsulfoxide (DMSO)
Test: Inhibitory effect on the formation of beta-amyloid fibrils in vitro (ThT fluorescence assay)
Format: biochemical
Conditions: for inhibition at 10 µM: read-out: % Inhibition (10 μM); for pIC50: In vitro ThT analysis (Aβ42: 25 μM); for % inhibition against the beta-amyloid 42 formation compared with curcumin: Tables 1 to 6, relative to curcumin
Experimental: In order to investigate the inhibitory effect on the formation of beta-amyloid fibrils, the inventive compounds were examined as follows:
Beta-amyloid 42 (Aβ42) was dissolved in dimethylsulfoxide (DMSO) to form a […] Aβ42 stock solution. In addition, ThT (thioflavin T) was dissolved in distilled water to a concentration of 1 mM and subsequently diluted with 50 mM glycin buffer (pH 8.5) to yield a 5 μM ThT stock solution.
45 μL of PBS (phosphate buffer saline, pH 7.4) was added to each of a 96 well fluorescence microplate (white, F-bottom). 5 μL of the 250 μM Aβ42 stock solution was added to each well. The final concentration of each compound obtained in Examples was in a range of 10 to 0.001 μM by adding 2 μL of a solution, which is prepared by dissolving the subject compounds obtained in Examples in DMSO, to each well. At this time, the final concentration of Aβ42 in each well was 25 μM. The plate was then incubated at room temperature for 1 hr, and 150 μL of the 5 μM ThT stock solution was added to each well.
The fluorescence intensity of each well was determined with the multi label fluorescence counter (LS-55 Luminescence spectrometer, Perkin Elmer) at an excitation wavelength of 450 nm (excitation slit width: 10 nm) and an emission wavelength of 482 nm (emission slit width: 10 nm), while adjusting counting time to 1 second. The control group was prepared by adding PBS solution, Aβ42 and DMSO, without adding the inventive compound. % Inhibition on the formation of beta-amyloid fibrils was calculated in accordance with the following equation and IC5O was calculated by using GraphPad Prism version 4.03 Program.
% Inhibition=[1−(C−D)/(A−B)]×100 Equation 1%
A (control group): fluorescence intensity in a group treated with PBS solution, Aβ42, and DMSO
B (blank): fluorescence intensity in a group treated with PBS solution and DMSO
C (experimental group): fluorescence intensity in a group treated with PBS solution, Aβ42, DMSO, and the inventive compound
D (compensation value to the experimental group): fluorescence intensity in a group treated with PBS solution, DMSO, and the inventive compound

[1] = 10 μM compound, Aβ42 25 μM, experiment of Table 5
[2] = 10 μM compound, Aβ42 25 μM, experiment of Table 6
[3] = 10 μM compound, Aβ42 25 μM, experiment of Table 4
[4] = 10 μM compound, Aβ42 25 μM, experiment of Table 2
[5] = 10 μM compound, Aβ42 25 μM, experiment of Table 3
[6] = 10 μM compound, Aβ42 25 μM, experiment of Table 7

T1 sequence (P05067 672-713 limits assumed): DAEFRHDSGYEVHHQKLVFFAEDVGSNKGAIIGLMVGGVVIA

## COc1cc2cc(C=Cc3ccc(N(C)C)cc3)oc2cc1OC [Compound 51, 5,6-dimethoxy-2-(4-dimethylaminostyryl)benzofuran]
[1]
  inhibition at 10 µM: 29.2%

## CNc1ccc(/C=C/c2cc3cc(OC)ccc3o2)cc1 [hydrochloride of Ex. 17]
[2]
  inhibition at 10 µM: 74.1%
Experiment of Table 6
  pIC50: 6.18
  % inhibition against the beta-amyloid 42 formation compared with curcumin: superior % inhibition

## COc1ccc(C=Cc2cc3cc(OC)c(OC)cc3o2)cc1OC [Compound 55, 5,6-dimethoxy-2-(3,4-dimethoxystyryl)benzofuran]
[1]
  inhibition at 10 µM: 51.4%

## CCN(CC)c1ccc(C=Cc2cc3ccc(O)cc3o2)cc1 [Compound 69, 6-hydroxy-2-(4-diethylaminostyryl)benzofuran]
[1]
  inhibition at 10 µM: 42.2%

## CNc1ccc(C=Cc2cc3cc(OC)c(OC)cc3o2)cc1OC [Compound 53, 5,6-dimethoxy-2-(3-methoxy-4-methylaminostyryl)benzofuran]
[1]
  inhibition at 10 µM: 56.2%

## COc1ccc(C=Cc2cc3cc(I)ccc3o2)cc1OC [Compound 50, 5-iodo-2-(3,4-dimethoxystyryl)benzofuran]
[3]
  inhibition at 10 µM: 62.4%
Experiment of Table 4
  pIC50: 5.24

## CNc1ccc(C=Cc2cc3ccccc3o2)cc1 [Compound 25, 2-(4-methylaminostyryl)benzofuran trifluoroacetate]
  inhibition at 10 µM: 59%

## COc1ccc(C=Cc2cc3cc(C)ccc3o2)cc1OC [Compound 43, 5-methyl-2-(3,4-dimethoxystyryl)benzofuran]
[4]
  inhibition at 10 µM: 69.4%
Experiment of Table 2
  pIC50: 4.98

## CCN(CC)c1ccc(C=Cc2cc3cc(O)ccc3o2)cc1 [Compound 56, 5-hydroxy-2-(4-diethylaminostyryl)benzofuran]
[4]
  inhibition at 10 µM: 81.6%
Experiment of Table 2
  pIC50: 5.89
  % inhibition against the beta-amyloid 42 formation compared with curcumin: superior % inhibition

## Cc1ccc2cc(C=Cc3ccc(N)cc3)oc2c1 [Compound 61, 6-methyl-2-(4-aminostyryl)benzofuran trifluoroacetate]
[5]
  inhibition at 10 µM: 57.5%

## CCN(CC)c1ccc(C=Cc2cc3ccc(OC)cc3o2)cc1 [Compound 57, 6-methoxy-2-(4-diethylaminostyryl)benzofuran]
[5]
  inhibition at 10 µM: 62.8%

## CN(C)c1ccc(/C=C/c2nc3ccccc3s2)cc1 [Comparative Example 2, 2-(4-dimethylaminophenylethenyl)benzothiazole, reference compound]
[6]
  inhibition at 10 µM: 25.7%
Experiment of Table 7
  pIC50: 4.50

## CNc1ccc(C=Cc2cc3cc(OC)c(OC)cc3o2)cc1 [Compound 70, 5,6-dimethoxy-2-(4-methylaminostyryl)benzofuran]
[1]
  inhibition at 10 µM: 25.8%

## CN(C)c1ccc(C=Cc2cc3cc(Br)ccc3o2)cc1 [Compound 7, 5-bromo-2-(4-dimethylaminostyryl)benzofuran]
Experiment of Table 1
  pIC50: 6.33
  % inhibition against the beta-amyloid 42 formation compared with curcumin: superior % inhibition

## CN(C)c1ccc(C=Cc2cc3ccc(Cl)cc3o2)cc1 [Compound 13, 6-chloro-2-(4-dimethylaminostyryl)benzofuran]
Experiment of Table 1
  pIC50: 5.49

## CNc1ccc(C=Cc2cc3ccc(OCCOCCOCCF)cc3o2)cc1 [Compound 66, 6-(2-(2-(2-fluoroethoxy)ethoxy)ethoxy)-2-(4-methylaminostyryl)benzofuran]
[1]
  inhibition at 10 µM: 61.7%

## CNc1ccc(C=Cc2cc3cc(O)ccc3o2)cc1 [Compound 19, 5-hydroxy-2-(4-methylaminostyryl)benzofuran hydrochloride]
Experiment of Table 1
  pIC50: 5.67

## CCN(CC)c1ccc(C=Cc2cc3cc(I)ccc3o2)cc1 [Compound 47, 5-iodo-2-(4-diethylaminostyryl)benzofuran]
[1]
  inhibition at 10 µM: 63.3%
Experiment of Table 5
  pIC50: 5.98
  % inhibition against the beta-amyloid 42 formation compared with curcumin: superior % inhibition

## COc1cc(/C=C/C(=O)CC(=O)/C=C/c2ccc(O)c(OC)c2)ccc1O [curcumin, reference compound]
[4]
  inhibition at 10 µM: 92.1%
[3]
  inhibition at 10 µM: 79.7%
[1]
  inhibition at 10 µM: 67.8%
[2]
  inhibition at 10 µM: 98.1%
[6]
  inhibition at 10 µM: 76.4%
  inhibition at 10 µM: 78.3%

## 5-methyl-2-(aminostyryl)benzofuran trifluoroacetate [Compound 39]
[5]
  % Inhibition (10 μM): 60.23%

## CNc1ccc(C=Cc2cc3cc(OC)ccc3o2)cc1OC [Compound 36, 5-methoxy-2-(3-methoxy-4-methylaminostyryl)benzofuran]
[1]
  inhibition at 10 µM: 24.5%

## Cc1ccc2cc(C=Cc3ccc(N(C)C)cc3)oc2c1 [Compound 11, 6-methyl-2-(4-dimethylaminostyryl)benzofuran]
Experiment of Table 1
  pIC50: 5.46

## COc1ccc2cc(C=Cc3ccc(N(C)C)c(OC)c3)oc2c1 [Compound 23, 6-methoxy-2-(3-methoxy-4-dimethylaminostyryl)benzofuran]
Experiment of Table 1
  pIC50: 6.28
  % inhibition against the beta-amyloid 42 formation compared with curcumin: superior % inhibition

## COc1ccc(C=Cc2cc3ccc(C)cc3o2)cc1OC [Compound 65, 6-methyl-2-(3,4-dimethoxystyryl)benzofuran]
[1]
  inhibition at 10 µM: 67.5%
Experiment of Table 5
  pIC50: 6.05
  % inhibition against the beta-amyloid 42 formation compared with curcumin: superior % inhibition

## CCN(CC)c1ccc(C=Cc2cc3cc(OC)ccc3o2)cc1 [Compound 35, 5-methoxy-2-(4-diethylaminostyryl)benzofuran]
[4]
  inhibition at 10 µM: 55.1%
Experiment of Table 2
  pIC50: 5.93

## CNc1ccc(C=Cc2cc3cc(I)ccc3o2)cc1OC [Compound 48, 5-iodo-2-(3-methoxy-4-methylaminostyryl)benzofuran]
[2]
  inhibition at 10 µM: 74.2%
Experiment of Table 6
  pIC50: 5.98
  % inhibition against the beta-amyloid 42 formation compared with curcumin: superior % inhibition

## CNc1ccc(C=Cc2cc3cc(Cl)ccc3o2)cc1OC [Compound 32, 5-chloro-2-(3-methoxy-4-methylaminostyryl)benzofuran]
[1]
  inhibition at 10 µM: 47.6%

## COc1ccc2oc(C=Cc3ccc(OC)c(OC)c3)cc2c1 [Compound 38, 5-methoxy-2-(3,4-dimethoxystyryl)benzofuran]
[4]
  inhibition at 10 µM: 81.1%
Experiment of Table 2
  pIC50: 5.81

## Nc1ccc(C=Cc2cc3ccccc3o2)cc1 [Compound 24, 2-(4-aminostyryl)benzofuran trifluoroacetate]
  inhibition at 10 µM: 70.7%

## COc1ccc(C=Cc2cc3cc(OC)ccc3o2)cc1 [Compound 37, 5-methoxy-2-(4-methoxystyryl)benzofuran]
[4]
  inhibition at 10 µM: 67.9%
Experiment of Table 2
  pIC50: 6.15
  % inhibition against the beta-amyloid 42 formation compared with curcumin: superior % inhibition

## COc1ccc(C=Cc2cc3ccc(OC)cc3o2)cc1 [Compound 58, 6-methoxy-2-(4-methoxystyryl)benzofuran]
[5]
  inhibition at 10 µM: 57.2%

## COc1ccc(C=Cc2cc3cc(OC)c(OC)cc3o2)cc1 [Compound 54, 5,6-dimethoxy-2-(4-methoxystyryl)benzofuran]
[2]
  inhibition at 10 µM: 77.8%
Experiment of Table 6
  pIC50: 6.04
  % inhibition against the beta-amyloid 42 formation compared with curcumin: superior % inhibition

## COc1ccc(C=Cc2cc3cc(Cl)ccc3o2)cc1 [Compound 33, 5-chloro-2-(4-methoxystyryl)benzofuran]
[4]
  inhibition at 10 µM: 51.8%
Experiment of Table 2
  pIC50: < 4.00

## CNc1ccc(C=Cc2cc3cc(C)ccc3o2)cc1 [Compound 40, 5-methyl-2-(4-methylaminostyryl)benzofuran trifluoroacetate]
[5]
  inhibition at 10 µM: 70.2%
[2]
  inhibition at 10 µM: 73.5%
Experiment of Table 6
  pIC50: 5.30

## CN(C)c1ccc(C=Cc2cc3ccc(O)cc3o2)cc1 [Compound 10, 6-hydroxy-2-(4-dimethylaminostyryl)benzofuran]
Experiment of Table 1
  pIC50: 5.44

## COc1ccc(C=Cc2cc3cc(Cl)ccc3o2)cc1OC [Compound 34, 5-chloro-2-(3,4-dimethoxystyryl)benzofuran]
[4]
  inhibition at 10 µM: 72.5%
Experiment of Table 2
  pIC50: 6.74
  % inhibition against the beta-amyloid 42 formation compared with curcumin: superior % inhibition

## CN(C)c1ccc(C=Cc2cc3cc(F)ccc3o2)cc1 [Compound 5, 5-fluoro-2-(4-dimethylaminostyryl)benzofuran]
Experiment of Table 1
  pIC50: 5.70

## COc1ccc(C=Cc2cc3cc(C)ccc3o2)cc1 [Compound 42, 5-methyl-2-(4-methoxystyryl)benzofuran]
[4]
  inhibition at 10 µM: 69.7%
Experiment of Table 2
  pIC50: 4.80
